# Measurements as given in paper PMC5560747, “Computational-experimental approach to drug-target interaction mapping: A case study on kinase inhibitors” (PLoS Computational Biology, 2017).
# Experiments:
# RPS6KB1 [1] = target: T1, RPS6KB1 (Homo sapiens, UniProt P23443); experiment: ADP-Glo Kinase Assay, tivozanib off-target testing; format: biochemical; conditions: read-out: Experimental validation pIC50 (converted)
# T1 construct: purchased SignalChem R21-10H-10
# Protocol: (§1) The kinase inhibitors were dissolved to 1X Kinase Buffer with 5% DMSO by transferring 200nL of the buffer using ECHO525 Liquid handler (Labcyte). […] The dissolved kinases and 2.5X kinase buffer controls were transferred at 400nL using ECHO525. […] The 2.5X ATP/substrate working stocks were transferred at 400nL using ECHO525.
# (§2) For the ADP detection, 1 μl ADP-Glo reagent was dispensed (Thermo Scientific Multidrop Combi nL). […] Next, 2 μl kinase detection reagent was dispensed with Thermo Scientific Multidrop Combi nL.
# (§3) Kinase assay, kinase dilution and substrate buffers were as indicated by the manufacturer (Promega). The assays were performed in the same way as with the kinases from the Kinase Selectivity Profiling System + ADP-Glo Assay kits (see previous section). All the assays were done in three individual experiments, each having three replicates.
# (§4) IC50 values from all the experiments were obtained with GraphPad Prism 7 (GraphPad Software, Inc. California, USA) using inhibitor vs. response—variable slope (four parameters) analysis. […] X-axis scale was set to log10.
# FYN A [2] = target: T2, FYN A (Homo sapiens, UniProt P06241); experiment: ADP-Glo Kinase Assay, tivozanib off-target testing; format: biochemical; conditions: read-out: Experimental validation pIC50 (converted)
# Protocol: as §1, §2, §3, §4
# FLT4 = FLT4 (Homo sapiens, UniProt P35916); set-up: method as in Gao et al. [42]; conditions: ref Gao et al. [42], cited from earlier work
# RPS6KB1 [3] = target: T1, RPS6KB1; set-up: method as in Gao et al. [42]; conditions: ref Gao et al. [42], cited from earlier work
# FYN A [4] = target: T2, FYN A; set-up: method as in Gao et al. [42]; conditions: ref Gao et al. [42], cited from earlier work
# FGFR3 = test system: FGFR3; set-up: method as in Gao et al. [42]; conditions: ref Gao et al. [42], cited from earlier work
# ROS1 = test system: ROS1; set-up: method as in Gao et al. [42]; conditions: ref Gao et al. [42], cited from earlier work
# DAPK3 = test system: DAPK3; set-up: method as in Gao et al. [42]; conditions: ref Gao et al. [42], cited from earlier work
# IGF1R = IGF1R (Homo sapiens, UniProt P08069); set-up: method as in Gao et al. [42]; conditions: ref Gao et al. [42]; cited from earlier work
# PDK1 = test system: PDK1; set-up: method as in Gao et al. [42]; conditions: ref Gao et al. [42], cited from earlier work
# CAMK2D = test system: CAMK2D; set-up: method as in Gao et al. [42]; conditions: ref Gao et al. [42], cited from earlier work
# FAK = FAK (Homo sapiens, UniProt Q05397); set-up: method as in Gao et al. [42]; conditions: ref Gao et al. [42]; cited from earlier work
# JAK3 = JAK3 (Homo sapiens, UniProt P52333); set-up: method as in Gao et al. [42]; conditions: ref Gao et al. [42], cited from earlier work
# BTK = BTK (Homo sapiens, UniProt Q06187); set-up: method as in Gao et al. [42]; conditions: ref Gao et al. [42], cited from earlier work
# PIM3 = test system: PIM3; set-up: method as in Gao et al. [42]; conditions: ref Gao et al. [42], cited from earlier work
# CDK1 = test system: CDK1; set-up: method as in Gao et al. [42]; conditions: ref Gao et al. [42], cited from earlier work
# CAMK1 = test system: CAMK1; set-up: method as in Gao et al. [42]; conditions: ref Gao et al. [42], cited from earlier work
# MAPKAPK3 = test system: MAPKAPK3; set-up: method as in Gao et al. [42]; conditions: ref Gao et al. [42], cited from earlier work
# T1 sequence (P23443 whole entry): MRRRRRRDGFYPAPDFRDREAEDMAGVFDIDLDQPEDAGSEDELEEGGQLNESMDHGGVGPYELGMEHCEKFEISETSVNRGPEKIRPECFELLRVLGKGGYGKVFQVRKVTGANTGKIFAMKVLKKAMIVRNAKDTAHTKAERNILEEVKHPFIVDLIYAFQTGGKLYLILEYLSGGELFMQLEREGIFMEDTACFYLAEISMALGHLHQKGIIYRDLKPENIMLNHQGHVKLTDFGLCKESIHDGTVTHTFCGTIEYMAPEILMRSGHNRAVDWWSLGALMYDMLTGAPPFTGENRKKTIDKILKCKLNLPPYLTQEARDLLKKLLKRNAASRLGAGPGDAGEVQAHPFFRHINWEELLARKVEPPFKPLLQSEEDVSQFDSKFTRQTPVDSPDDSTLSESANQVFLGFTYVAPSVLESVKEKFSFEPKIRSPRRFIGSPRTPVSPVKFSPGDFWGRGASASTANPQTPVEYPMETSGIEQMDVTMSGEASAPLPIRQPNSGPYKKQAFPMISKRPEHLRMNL
# T2 sequence (P06241 whole entry): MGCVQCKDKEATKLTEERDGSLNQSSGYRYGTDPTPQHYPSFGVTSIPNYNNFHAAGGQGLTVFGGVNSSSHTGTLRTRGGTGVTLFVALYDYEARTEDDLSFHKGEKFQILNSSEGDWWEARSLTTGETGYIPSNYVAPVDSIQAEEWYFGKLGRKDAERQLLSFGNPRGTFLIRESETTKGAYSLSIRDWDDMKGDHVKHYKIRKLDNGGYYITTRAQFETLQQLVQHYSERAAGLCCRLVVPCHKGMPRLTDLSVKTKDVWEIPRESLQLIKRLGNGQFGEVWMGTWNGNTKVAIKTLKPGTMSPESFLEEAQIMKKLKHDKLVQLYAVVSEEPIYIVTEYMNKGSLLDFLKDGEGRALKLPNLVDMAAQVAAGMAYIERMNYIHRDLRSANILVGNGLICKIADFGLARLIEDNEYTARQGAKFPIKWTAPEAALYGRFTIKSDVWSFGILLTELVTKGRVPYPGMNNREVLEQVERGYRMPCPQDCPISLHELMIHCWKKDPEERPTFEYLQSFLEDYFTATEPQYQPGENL
# Chain of FLT4 (P35916 25-1363): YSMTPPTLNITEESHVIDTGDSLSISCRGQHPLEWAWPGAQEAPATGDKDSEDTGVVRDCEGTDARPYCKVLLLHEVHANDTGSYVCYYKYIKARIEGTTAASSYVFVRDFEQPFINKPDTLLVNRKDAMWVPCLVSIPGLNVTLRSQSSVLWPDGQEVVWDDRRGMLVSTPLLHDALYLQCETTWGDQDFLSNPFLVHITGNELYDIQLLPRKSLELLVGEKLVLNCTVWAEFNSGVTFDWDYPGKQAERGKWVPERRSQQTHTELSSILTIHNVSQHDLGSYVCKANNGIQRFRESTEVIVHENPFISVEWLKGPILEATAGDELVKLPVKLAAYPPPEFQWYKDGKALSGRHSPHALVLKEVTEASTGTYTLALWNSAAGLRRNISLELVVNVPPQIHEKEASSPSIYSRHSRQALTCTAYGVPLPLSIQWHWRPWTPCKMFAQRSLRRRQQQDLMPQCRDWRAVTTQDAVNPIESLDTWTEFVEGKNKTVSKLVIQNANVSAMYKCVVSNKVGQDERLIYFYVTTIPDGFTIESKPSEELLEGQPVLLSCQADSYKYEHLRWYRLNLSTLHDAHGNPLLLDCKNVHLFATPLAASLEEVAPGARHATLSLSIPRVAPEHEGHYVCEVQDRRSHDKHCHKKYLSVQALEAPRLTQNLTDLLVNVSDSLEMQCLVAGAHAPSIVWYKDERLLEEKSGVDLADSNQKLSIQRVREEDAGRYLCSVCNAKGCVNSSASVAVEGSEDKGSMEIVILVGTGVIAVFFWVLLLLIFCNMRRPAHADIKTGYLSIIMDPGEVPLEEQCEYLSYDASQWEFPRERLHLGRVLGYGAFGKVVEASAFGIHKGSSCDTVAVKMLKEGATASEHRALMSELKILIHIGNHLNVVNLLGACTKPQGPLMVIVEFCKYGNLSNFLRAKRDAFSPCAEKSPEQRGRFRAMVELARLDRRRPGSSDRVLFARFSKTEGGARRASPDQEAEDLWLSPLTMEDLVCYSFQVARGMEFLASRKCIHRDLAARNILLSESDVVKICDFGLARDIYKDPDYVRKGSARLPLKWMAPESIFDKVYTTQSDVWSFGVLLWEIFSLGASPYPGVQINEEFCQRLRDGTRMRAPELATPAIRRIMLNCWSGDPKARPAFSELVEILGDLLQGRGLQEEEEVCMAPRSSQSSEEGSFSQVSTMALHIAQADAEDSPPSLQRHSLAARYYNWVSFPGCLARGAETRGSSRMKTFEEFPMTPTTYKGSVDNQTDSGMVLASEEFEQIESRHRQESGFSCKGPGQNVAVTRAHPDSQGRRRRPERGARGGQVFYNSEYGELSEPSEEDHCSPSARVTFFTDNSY
# Chain of BTK (Q06187 whole entry): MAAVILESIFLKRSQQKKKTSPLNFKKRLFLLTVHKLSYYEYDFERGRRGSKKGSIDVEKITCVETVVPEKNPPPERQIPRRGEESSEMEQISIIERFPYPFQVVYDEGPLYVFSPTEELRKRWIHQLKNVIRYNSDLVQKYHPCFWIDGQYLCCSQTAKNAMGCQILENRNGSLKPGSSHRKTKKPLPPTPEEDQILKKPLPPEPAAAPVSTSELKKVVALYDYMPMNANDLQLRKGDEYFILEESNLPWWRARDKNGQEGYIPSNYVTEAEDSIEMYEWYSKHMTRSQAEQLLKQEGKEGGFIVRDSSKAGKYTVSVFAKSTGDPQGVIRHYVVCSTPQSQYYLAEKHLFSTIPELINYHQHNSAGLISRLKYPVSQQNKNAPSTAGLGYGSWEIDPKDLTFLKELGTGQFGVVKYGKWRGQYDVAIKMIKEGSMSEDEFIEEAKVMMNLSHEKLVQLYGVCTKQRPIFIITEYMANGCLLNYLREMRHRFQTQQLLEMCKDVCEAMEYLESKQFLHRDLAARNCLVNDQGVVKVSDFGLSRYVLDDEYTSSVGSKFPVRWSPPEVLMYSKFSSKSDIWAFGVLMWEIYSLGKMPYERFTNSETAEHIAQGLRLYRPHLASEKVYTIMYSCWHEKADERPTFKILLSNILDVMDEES
# Chain of JAK3 (P52333 whole entry): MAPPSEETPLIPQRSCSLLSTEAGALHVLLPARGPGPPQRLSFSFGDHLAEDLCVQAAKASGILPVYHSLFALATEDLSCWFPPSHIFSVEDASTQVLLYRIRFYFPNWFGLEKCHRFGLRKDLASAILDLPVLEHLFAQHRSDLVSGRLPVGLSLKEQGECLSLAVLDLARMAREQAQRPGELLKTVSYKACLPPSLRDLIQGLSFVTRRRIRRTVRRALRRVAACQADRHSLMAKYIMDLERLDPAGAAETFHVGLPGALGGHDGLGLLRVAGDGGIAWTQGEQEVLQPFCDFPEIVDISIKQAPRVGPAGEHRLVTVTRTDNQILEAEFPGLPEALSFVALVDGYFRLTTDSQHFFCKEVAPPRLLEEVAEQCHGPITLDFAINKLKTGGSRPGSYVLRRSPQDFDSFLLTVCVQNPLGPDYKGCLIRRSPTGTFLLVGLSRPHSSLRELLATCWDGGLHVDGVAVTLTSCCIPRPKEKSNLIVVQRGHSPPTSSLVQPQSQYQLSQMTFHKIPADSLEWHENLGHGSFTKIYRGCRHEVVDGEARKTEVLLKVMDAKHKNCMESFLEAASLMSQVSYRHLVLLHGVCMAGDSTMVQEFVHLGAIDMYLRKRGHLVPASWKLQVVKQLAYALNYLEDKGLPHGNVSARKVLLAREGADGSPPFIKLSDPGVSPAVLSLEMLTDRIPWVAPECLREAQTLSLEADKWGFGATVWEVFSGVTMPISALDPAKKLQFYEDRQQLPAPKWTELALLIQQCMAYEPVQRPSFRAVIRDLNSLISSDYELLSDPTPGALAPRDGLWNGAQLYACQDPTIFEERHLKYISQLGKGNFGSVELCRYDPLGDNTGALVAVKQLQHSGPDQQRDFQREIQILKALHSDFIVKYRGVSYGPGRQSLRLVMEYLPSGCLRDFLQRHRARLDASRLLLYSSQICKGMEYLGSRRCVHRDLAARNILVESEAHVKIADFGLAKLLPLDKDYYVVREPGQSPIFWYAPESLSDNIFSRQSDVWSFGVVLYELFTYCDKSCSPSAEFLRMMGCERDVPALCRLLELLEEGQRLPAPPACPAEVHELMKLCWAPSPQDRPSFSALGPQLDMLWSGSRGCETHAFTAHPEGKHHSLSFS
compound,measurement,setting,value
"COc1cc2nccc(Oc3ccc(NC(=O)Nc4cc(C)on4)c(Cl)c3)c2cc1OC [TIVOZANIB, Tivozanib]",IC50,RPS6KB1 [1],> 12.5 µM
same,IC50,FYN A [2],398 nM
same,Gao et al. % of activity remaining at 1 µM,FLT4; 1 µM,-1%
same,Gao et al. % of activity remaining at 10 µM,FLT4; 10 µM,-1%
same,Gao et al. % of activity remaining at 1 µM,RPS6KB1 [3]; 1 µM,76%
same,Gao et al. % of activity remaining at 10 µM,RPS6KB1 [3]; 10 µM,53%
same,Gao et al. % of activity remaining at 1 µM,FYN A [4]; 1 µM,5%
same,Gao et al. % of activity remaining at 10 µM,FYN A [4]; 10 µM,1%
same,Gao et al. % of activity remaining at 1 µM,FGFR3; 1 µM,59%
same,Gao et al. % of activity remaining at 10 µM,FGFR3; 10 µM,28%
same,Gao et al. % of activity remaining at 1 µM,ROS1; 1 µM,24%
same,Gao et al. % of activity remaining at 10 µM,ROS1; 10 µM,16%
same,Gao et al. % of activity remaining at 1 µM,DAPK3; 1 µM,82%
same,Gao et al. % of activity remaining at 10 µM,DAPK3; 10 µM,90%
same,Gao et al. % of activity remaining at 1 µM,IGF1R,135%
same,Gao et al. % of activity remaining at 1 µM,PDK1; 1 µM,110%
same,Gao et al. % of activity remaining at 10 µM,PDK1; 10 µM,116%
same,Gao et al. % of activity remaining at 1 µM,CAMK2D; 1 µM,102%
same,Gao et al. % of activity remaining at 10 µM,CAMK2D; 10 µM,90%
same,Gao et al. % of activity remaining at 10 µM,FAK,35%
same,Gao et al. % of activity remaining at 1 µM,JAK3; 1 µM,100%
same,Gao et al. % of activity remaining at 10 µM,JAK3; 10 µM,48%
same,Gao et al. % of activity remaining at 1 µM,BTK; 1 µM,50%
same,Gao et al. % of activity remaining at 10 µM,BTK; 10 µM,10%
same,Gao et al. % of activity remaining at 1 µM,PIM3; 1 µM,107%
same,Gao et al. % of activity remaining at 10 µM,PIM3; 10 µM,105%
same,Gao et al. % of activity remaining at 1 µM,CDK1; 1 µM,100%
same,Gao et al. % of activity remaining at 10 µM,CDK1; 10 µM,94%
same,Gao et al. % of activity remaining at 1 µM,CAMK1; 1 µM,105%
same,Gao et al. % of activity remaining at 10 µM,CAMK1; 10 µM,41%
same,Gao et al. % of activity remaining at 1 µM,MAPKAPK3; 1 µM,116%
same,Gao et al. % of activity remaining at 10 µM,MAPKAPK3; 10 µM,67%
